Data on seven molecules can be found in ChEMBL document CHEMBL1201862, “PubChem BioAssay data set” (2004).

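48-hour exposure; five concentrations; linearly interpolated endpoints. GI50: concentration for 50% inhibition of growth.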 Active and inactive are the calls of the source. Cut-off read from the data, not from the text of the source: active = GI50 up to about 1.1 µM and inactive = higher. A value given as a limit tells only on which side of the number the result lay.

Common to all, as to test: DTP human tumour cell line panel, 48 h
Assay [1] has as its system HOP-62.
The test system of assay [2] is HCT-15.
Assay [3] relates to NCI-H522.
The test system of assay [4] is SK-OV-3.
Assay [5] deals with SR.
For assay [6], the system named is A498.
The test system of assay [7] is Malme-3M.
Assay [8] relates to SF-539.
The test system of assay [9] is OVCAR-3.
Assay [10] concerns UACC-62.
Assay [11] has as its system EKVX.
Assay [12] has as its system MDA-MB-231.
The test system of assay [13] is T47D.
In assay [14] the test system is COLO 205.
For assay [15], the system named is CCRF-CEM.
Assay [16] concerns NCI-H226.
Assay [17] relates to LOX IMVI.
The subject of assay [18] is BT-549.
In assay [19] the test system is SNB-75.
Assay [20] deals with UO-31.

Take `COc1cccc(Nc2nc(NNC(=O)Cc3ccccc3)nc(NNC(=O)c3ccncc3)n2)c1`: the GI50 in [1] is > 10 µM (inactive); in assay [2] it was 7.93 µM; in assay [3] it was > 100 µM (inactive); in [4], > 10 µM (inactive); in assay [5], 6.62 µM (inactive); in assay [6], > 100 µM (inactive). For the same molecule, the GI50 is > 10 µM (inactive) in assay [7]; > 10 µM (inactive) in assay [8]; > 100 µM (inactive) in assay [9]; 4.71 µM (inactive) in assay [10]; > 10 µM (inactive) in [11]; 8.55 µM (inactive) in assay [12]. Moreover, the GI50 is > 10 µM (inactive) in assay [13]; > 10 µM (inactive) in [14]; > 10 µM (inactive) in assay [15]; > 100 µM (inactive) in assay [16]; 13.4 µM (inactive) in assay [17]; > 10 µM (inactive) in assay [18]. In addition, the figures for the GI50 in [19] and in [20] were 53.5 µM (inactive) and 6.32 µM (inactive), respectively.

Take `Cc1nc(Nc2ccc(Cl)c(Cl)c2)sc1C(/C=C/c1ccc2c(c1)OCO2)=N/Nc1ccc([N+](=O)[O-])cc1[N+](=O)[O-]`: the GI50 in [1] is 59.8 µM (inactive); in assay [2], > 97.1 µM; in assay [3], 61 µM (inactive); in assay [4], > 91.8 µM (inactive); in assay [5] it was > 91.4 µM (inactive); in [6] it was > 50.9 µM (inactive). Also, the GI50 in assay [7] was > 100 µM (inactive); in assay [8], 43.8 µM (inactive); in assay [9], > 100 µM (inactive); in assay [10], > 61.9 µM (inactive); in assay [11] it was > 100 µM (inactive); in assay [12] it was > 100 µM (inactive). Moreover, the GI50 in [13] is > 100 µM (inactive); in assay [14] it was > 100 µM (inactive); in assay [15], 80.9 µM (inactive); in assay [16], > 59 µM (inactive); in [17], 67 µM (inactive); in [18], > 100 µM (inactive). The GI50 is 13.2 µM (inactive) in [19] and 78.2 µM (inactive) in assay [20].

As for `CC(C)CCNC(=O)c1ccc(CNC(=O)/C=C/c2ccc3c(c2)-c2ccccc2C3)cc1`, the GI50 is 19.1 µM (inactive) in [1]; 41.5 µM in assay [2]; 22.6 µM (inactive) in assay [3]; 57.1 µM (inactive) in assay [4]; 34.9 µM (inactive) in [5]; > 100 µM (inactive) in assay [6]. For the same molecule, the GI50 in assay [7] is 17.3 µM (inactive); in assay [8], > 100 µM (inactive); in assay [9], 23.4 µM (inactive); in [10] it was > 100 µM (inactive); in assay [11] it was > 100 µM (inactive); in [12], 34.5 µM (inactive). The GI50 was 39 µM (inactive) in assay [13]; 88.1 µM (inactive) in assay [14]; 38.8 µM (inactive) in [15]; 60 µM (inactive) in assay [16]; 50.6 µM (inactive) in [17]; 87.3 µM (inactive) in assay [18]. Further, the GI50 is 23.7 µM (inactive) in assay [19] and 42 µM (inactive) in assay [20].

For the molecule `Cc1cc(S(=O)(=O)Nc2nnc3c(C(F)(F)F)cc(Cl)cn23)c(S)cc1Cl`, the GI50 in [1] was > 100 µM (inactive); in assay [2], > 100 µM; in assay [3], > 100 µM (inactive); in [4], > 100 µM (inactive); in assay [5], 81.7 µM (inactive); in [6] it was > 100 µM (inactive). In addition, the GI50 in [7] was > 100 µM (inactive); in assay [8] it was > 100 µM (inactive); in [9] it was 89.5 µM (inactive); in [10], 41.5 µM (inactive); in assay [11], > 100 µM (inactive); in assay [12], > 100 µM (inactive). Further, the GI50 is 70.5 µM (inactive) in [13]; > 100 µM (inactive) in assay [14]; > 100 µM (inactive) in assay [15]; > 100 µM (inactive) in assay [16]; > 100 µM (inactive) in assay [17]; > 100 µM (inactive) in assay [18]. Also, the GI50 in assay [19] was 90.8 µM (inactive); in assay [20], 33 µM (inactive).

In the case of `COc1ccc2c(=O)c(-c3cc(OC)c(OC)cc3OC)coc2c1`, the GI50 in assay [1] is 3.72 µM (inactive); in assay [2], 1.24 µM; in assay [3], 1.28 µM (inactive); in assay [4], 3.02 µM (inactive); in assay [5], 1.27 µM (inactive); in assay [6], 8.45 µM (inactive). Also, the GI50 in assay [7] was 4.54 µM (inactive); in assay [8] it was 3.3 µM (inactive); in [9] it was 1.84 µM (inactive); in assay [10], 1.97 µM (inactive); in assay [11] it was 36.1 µM (inactive); in assay [12], > 100 µM (inactive). For the same molecule, the GI50 in [13] is 6.7 µM (inactive); in assay [14], 3.32 µM (inactive); in assay [15], 1.56 µM (inactive); in [16], > 43.2 µM (inactive); in assay [17], 5.51 µM (inactive); in [18], > 100 µM (inactive). Besides, the GI50 was 2.26 µM (inactive) in assay [19] and 34 µM (inactive) in assay [20].

On to `O=C(NNC(=S)NC1CCCCC1)c1csc(NC(=S)NC2CCCCC2)n1`, for which the GI50 in assay [1] was 12.4 µM (inactive); in [2] it was 0.463 µM; in [3], 12 µM (inactive); in [4] it was 11.7 µM (inactive); in assay [5] it was 5.4 µM (inactive); in assay [6] it was 21.5 µM (inactive). Also, the GI50 in assay [7] was 11.2 µM (inactive); in assay [8] it was 4.58 µM (inactive); in assay [9], 4.04 µM (inactive); in assay [10] it was 4.45 µM (inactive); in [11] it was > 100 µM (inactive); in assay [12], 17.8 µM (inactive). Besides, the GI50 in assay [13] is 13.1 µM (inactive); in assay [14] it was 3.22 µM (inactive); in assay [15], 5.73 µM (inactive); in assay [16], 66.7 µM (inactive); in [17], 4.9 µM (inactive); in assay [18], 2.9 µM (inactive). The values for the GI50 in assay [19] and in assay [20] were > 10 µM (inactive) and 0.948 µM (active), respectively.

Take `CCOC(=O)/C1=C(\C)N(Cc2ccccc2)C(=O)c2ccccc2C(=O)c2c(O)ccc(O)c21`: the GI50 in [1] is > 100 µM (inactive); in [2], > 100 µM; in assay [3], 24.1 µM (inactive); in [4], > 100 µM (inactive); in assay [5], > 100 µM (inactive); in [6], > 100 µM (inactive). In addition, the GI50 was > 100 µM (inactive) in assay [7]; > 100 µM (inactive) in assay [8]; > 100 µM (inactive) in [9]; > 100 µM (inactive) in assay [10]; 80.7 µM (inactive) in assay [11]; > 100 µM (inactive) in assay [12]. Besides, the GI50 was > 100 µM (inactive) in [13]; > 100 µM (inactive) in assay [14]; > 100 µM (inactive) in assay [15]; > 100 µM (inactive) in assay [16]; > 100 µM (inactive) in [17]; < 0.01 µM (active) in assay [18]. Moreover, the GI50 in assay [19] and in assay [20] was > 100 µM (inactive) each time.

The GI50 is the concentration that inhibits growth by half.
